Experimental data reported in publication PMC9925730, “Controlled sequential in situ self-assembly and disassembly of a fluorogenic cisplatin prodrug for cancer theranostics” (Nature Communications, 2023).

Columns and labels:
[1] = CMC of CyPt and stability of PtIVNPs under different pH conditions; format: physicochemical; settings: for FL intensity at 710 nm: Supplementary Fig. 8 a
Procedure: Co n cen t rati o n (μM) Time (h) Time (h)
Supplementary Figure 8. Evaluation of the CMC and stability of PtIVNPs under different pH conditions. (a) Plots of the fluorescence intensity (λem = 710 nm) versus the concentration of CyPt in Tris buffer determine the CMC of CyPt, which was found to be ~0.3 μM according to the intersection of the two linear fit lines. (b, c) Monitoring of the hydrodynamic size of Pt IVNPs upon incubation under (b) pH = 5.0, and (c) pH = 7.4 (10 μM) for 0-24 h. Date denote mean ± s.d. (n = 3 independent experiments).
(also on this page, place not known: Na 3VO4 ( λem 850 800 Normalized FL intensity Tris Trypsin Caspase-3 Normalized FL intensity 200Diameter (nm) 10 Diameter (nm) 7.4(b) CMC=0.3 00 . . 51.0 Concentration FL intensity (1 X 105) 0 2 1.5 2.0 3.0 (c)(a))

s.c. HeLa tumors [2] = experiment: Fluorescence imaging of varying sizes of s.c. HeLa tumors; format: in vivo, mice; settings: P-CyPt 100 μM, 200 μL i.v., 4 h
Procedure: page 21: Supplementary Figure 29. Fluorescence imaging of varying sizes of s.c. HeLa tumors in mice. (a) Representative fluorescence images of mice with s.c. HeLa tumors at a mean size of 3.8 ± 0.8, 22.1 ± 1.6, 46.4 ± 4.2, 75.9 ± 4.5 and 125.5 ± 12.7 mm3, respectively. […]) was i.v. injected into mice, and the whole-body fluorescence images were acquired at 0 and 4 h. Red arrows indicate the locations of tumors, and the black circle indicates the position chosen for the background in each mouse. (b) Calculated SBR in mice of different tumor sizes. […] Data denote mean ± s.d. (n = 3 independent animals). […] 21 (1 picture or pasted object on this page, not shown here)

s.c. HeLa tumors [3] = experiment: Ex vivo FL imaging of resected tumors and organs; format: in vivo, mice; settings: 4 h post i.v. injection
Procedure: Supplementary Figure 27. Ex vivo FL imaging of tumors and main organs. (a) Representative ex vivo FL images (λex/em = 660/750 ± 50 nm) and (b) average FL intensities of tumors and main organs resected from P-CyPt- or PtIVNPs-treated HeLa […]
200 μL). After 4 h, the mice were sacrificed. Tumors (T) and main organs, including liver (L), heart (H), spleen (Sp), lung (Lu), kidney (K), stomach (St), and intestine (In) were resected, and the FL images were acquired on the IVIS spectrum imager. Values denote mean ± s.d. (n = 3 independent animals). Statistical difference was analyzed by Student’s two-sided t-test. Source data are provided as a Source Data file.
Supplementary Figure 28. FL imaging of resected tumor tissue slices. FL images of tumor tissue slices (10 μm thickness) resected from s.c. HeLa tumor-bearing mice at 4 h after i.v. injection of PBS (200 μL), PtIVNPs or P-CyPt (100 μM, 200 μL). Cell nuclei were co-stained with DAPI (blue). […]
μm. […] The fluorescence images of the MCTS were captured on a Leica TCS SP8 confocal laser scanning microscope, microscope (TCS SP8 STED 3X) with 10x/0.4 dry lens (Leica), and captured at RGB on a HyD detector (Leica Dmi8) under PI and Cy5.5 channels. […]
were sacrificed after 4 h. […] The fluorescence images of these organs and tumors were acquired with the IVIS Lumina XR III imaging system using a 660 nm excitation filter and a 750 ± 50 nm emission filter. […]

ALP = experiment: Dephosphorylated efficacy of P-CyPt towards varying concentrations of ALP (NIR fluorescence); format: biochemical; settings: 250 μM

| SMILES | FL intensity at 710 nm ([1]; concentration of CyPt 0.05 μM) | FL intensity at 710 nm ([1]; concentration of CyPt 0.1 μM) | FL intensity at 710 nm ([1]; concentration of CyPt 0.2 μM) | FL intensity at 710 nm ([1]; concentration of CyPt 0.3 μM) | FL intensity at 710 nm ([1]; concentration of CyPt 0.5 μM) | FL intensity at 710 nm ([1]; concentration of CyPt 1 μM) | FL intensity at 710 nm ([1]; concentration of CyPt 2 μM) | FL intensity at 710 nm ([1]; concentration of CyPt 3 μM) | critical micellar concentration (CMC) ([1]; Tris buffer, fluorescence at 710 nm) | size of s.c. HeLa tumors still detected by NIR FL imaging (s.c. HeLa tumors [2]) | ex vivo tumor FL intensity higher than Pt^IVNPs-treated tumors (s.c. HeLa tumors [3]) | normalized signal over time (section 'Supplementary Fig. 2c'), mean of 3 (ALP; time 260 min) | normalized signal over time (section 'Supplementary Fig. 2c'), mean of 3 (ALP; time 280 min) | normalized signal over time (section 'Supplementary Fig. 2c'), mean of 3 (ALP; time 320 min) | normalized signal over time (section 'Supplementary Fig. 2c'), mean of 3 (ALP; time 440 min) |
| --- | --- | --- | --- | --- | --- | --- | --- | --- | --- | --- | --- | --- | --- | --- | --- |
| CC1(C)C(/C=C/C2=C3Oc4cc(O)c(Cl)cc4C=C3CCC2)=[N+](CCCNC(=O)[C@@H](Cc2ccccc2)NC(=O)[C@@H](Cc2ccccc2)NC(=O)CCC(=O)[O][Pt]([NH2])([NH2])([OH])([Cl])[Cl])c2ccccc21 [CyPt] | 2780 | 5650 | 11030 | 17800 | 19720 | 24040 | 35120 | 46610 | ≈ 0.3 μM | – | – | – | – | – | – |
| CC1(C)C(/C=C/C2=C3Oc4cc(OP(=O)(O)O)c(Cl)cc4C=C3CCC2)=[N+](CCCNC(=O)[C@@H](Cc2ccccc2)NC(=O)[C@@H](Cc2ccccc2)NC(=O)CCC(=O)[O][Pt]([NH2])([NH2])([OH])([Cl])[Cl])c2ccccc21 [P-CyPt] | – | – | – | – | – | – | – | – | – | 3.8 ± 0.8 mm^3 | ~ 3.2 fold | 0.996 | 0.9965 | 0.9972 | 0.9986 |
